The text below walks through data of patent publication US20230373938A1, “BENZOTHIAZOLE MEROTERPENOID COMPOUND AND DERIVATIVE THEREOF, AND PREPARATION METHOD THEREFOR AND USE THEREOF” (THIRD INSTITUTE OF OCEANOGRAPHY, MINISTRY OF NATURAL …, priority 2020, published 2023).

The structures appear in SMILES notation.

One experiment deals with T1, RXRalpha (Homo sapiens, UniProt P19793).
T1 construct: expressed in transfected cells; host or cells: Human embryonic kidney cells (293T)
T1 sequence (P19793 1-462): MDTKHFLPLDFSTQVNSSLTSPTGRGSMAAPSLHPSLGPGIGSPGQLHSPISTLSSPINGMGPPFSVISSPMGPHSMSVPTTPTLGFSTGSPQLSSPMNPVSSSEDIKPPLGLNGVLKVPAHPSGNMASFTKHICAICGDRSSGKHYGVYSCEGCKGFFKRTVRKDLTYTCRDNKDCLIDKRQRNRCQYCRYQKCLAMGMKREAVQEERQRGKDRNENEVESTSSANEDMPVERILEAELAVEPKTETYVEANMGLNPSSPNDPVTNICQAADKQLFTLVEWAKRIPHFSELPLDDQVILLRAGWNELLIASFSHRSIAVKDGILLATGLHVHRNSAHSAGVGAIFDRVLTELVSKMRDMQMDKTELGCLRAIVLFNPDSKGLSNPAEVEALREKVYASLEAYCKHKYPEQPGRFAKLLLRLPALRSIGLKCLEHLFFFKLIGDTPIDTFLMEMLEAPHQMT
Kind of experiment: RXRalpha dual-luciferase reporter gene assay (transcriptional activity). The class given is cell-based. Conditions: 293T cells, in combination with agonist 9-cis-RA; dosed 12.5, 25, 50 μM for 12 h. The text has this: In this embodiment, a dual-luciferase reporter (DLR) assay system consisting of firefly luciferase (FL) reporter gene and Rellina luciferase (RL) reporter gene is used. The RL reporter gene is used as an internal control to normalize measurement results of the FL reporter gene. In cells lacking endogenous RXRalpha and necessary components for downstream signal transduction, a receptor RXRalpha and reporter gene containing RXRalpha response elements are introduced by transfection, so as to simply simulate a transcriptional activation process of a receptor in vivo.
In this embodiment, the following three groups are set: • Negative control group: culture solution of an equal amount, 0.1% DMSO, containing cells, without the compounds as represented by formulas I to III; • Positive control group: culture solution of an equal amount, added with an RXRalpha agonist 9-cis-retinoic acid with or without an antagonist UVI3003 respectively; • Treatment group: cell culture solutions added with an RXRalpha agonist 9-cis-retinoic acid and the compounds as represented by formulas I to III respectively.
Specific steps include: • (1) Cell culture and preparation of test solution • Human embryonic kidney cells (293T) are cultured in a DMEM medium containing 10% fetal bovine serum (FBS) in an incubator containing 5% CO2 at 37° C., and passaged regularly based on growth law of the cells. […]
Background: Reporter assays use an easily measured gene product as a stand-in for the process of interest.

A further experiment concerns the target T2, RXRalpha-LBD protein (Homo sapiens, UniProt P19793).
T2 sequence (P19793 227-458 limits assumed): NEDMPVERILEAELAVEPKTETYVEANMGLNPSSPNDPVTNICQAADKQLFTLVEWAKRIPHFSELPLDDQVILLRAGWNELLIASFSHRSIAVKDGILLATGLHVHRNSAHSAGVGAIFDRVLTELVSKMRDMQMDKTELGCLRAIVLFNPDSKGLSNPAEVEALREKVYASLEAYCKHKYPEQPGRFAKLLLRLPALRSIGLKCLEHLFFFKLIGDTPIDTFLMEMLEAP
Description: Biacore (surface plasmon resonance) binding to RXRalpha-LBD protein. The conditions noted are these: Biacore T200, CM5 chip. As for the experimental part: A purified nuclear receptor RXRalpha-LBD protein is coupled with a CM5 chip of Biacore. Then the compounds to be tested are diluted with PBS to prepare solutions at different concentrations before sampling. When samples to be tested flow over the surface of the chip, the binding between biomolecules results in an increase in surface mass of a biosensor, so that refractive index changes. By monitoring angular variation of SPR, kinetic binding and dissociation constants, affinity and specificity of analytes can be automatically obtained. A BiacoreT200 detector can detect interaction between a target protein and the samples to be tested in real time, and binding strength is expressed in response unites (RU) (a change in concentration of binding substances on the chip surface by 1 pg/mm2 is defined as 1 RU). The compounds I to III are screened by Biacore technology, and a binding constant KD of small molecular compounds with RXRalpha-LBD is calculated based on a concentration gradient experiment.
A general note: In SPR one partner is held on a chip, and binding of the other changes the refractive index at the surface.

Usually Kd stands for the constant that tells how readily two partners part at equilibrium. With `C=C1CCC2C(C)(C)CCC[C@]2(C)[C@H]1Cc1cc(O)c(C)c2sc(C(=O)NCC(=O)O)nc12` (stereo partly drawn) [compound I, meroterpenthiazole A], at RXRalpha, the “inhibition of the transcription of RXRalpha by 9-cis-RA” value was “inhibit the transcription of RXRalpha by 9-cis-RA in a concentration-dependent manner”. In addition, on RXRalpha-LBD protein, the “binding mode to RXRalpha protein” value is “fast binding and fast dissociation mode”. Also, the Kd on RXRalpha-LBD protein (concentration gradient, read-out: binding constant KD with RXRalpha-LBD) is 12.3 µM.
